Results on five compounds are retold here after ChEMBL document CHEMBL1914411, “Synthesis of lipophilic dimeric C-7/C-7-linked ciprofloxacin and C-6/C-6-linked levofloxacin derivatives. Versatile in vitro biological evaluations of monomeric and dimeric fluoroquinolone derivatives as potential antitumor, antibacterial or antimycobacterial agents” (Eur J Med Chem, 2011).

The subject of test [1] is Staphylococcus aureus. As to the kind of experiment: Antimicrobial activity against multidrug-resistant Staphylococcus aureus isolate 1 after 18 to 24 hrs by broth microdilution method. It counts as functional. A general note: Broth dilution looks for growth in wells or tubes with falling amounts of substance.
The subject of test [2] is Staphylococcus aureus. Put plainly: Antimicrobial activity against Staphylococcus aureus CIP 4.83 after 18 to 24 hrs by broth microdilution method. Format: functional.
Test [3] concerns Staphylococcus aureus. Put plainly: Antimicrobial activity against multidrug-resistant Staphylococcus aureus isolate 2 after 18 to 24 hrs by broth microdilution method. It counts as functional.
In another test the test system is Escherichia coli. Put plainly: Antimicrobial activity against Escherichia coli CIP 53126 after 18 to 24 hrs by broth microdilution method. It counts as functional.
For test [4], the system named is Staphylococcus aureus. As to the kind of experiment: Antimicrobial activity against methicillin-resistant Staphylococcus aureus ATCC 33591 after 18 to 24 hrs by broth microdilution method. It counts as functional.
Another test has as its system Enterococcus hirae. As to the kind of experiment: Antimicrobial activity against Enterococcus hirae CIP 5855 after 18 to 24 hrs by broth microdilution method. It counts as functional.
For another test, the system named is Pseudomonas aeruginosa. Put plainly: Antimicrobial activity against Pseudomonas aeruginosa CIP 82.118 after 18 to 24 hrs by broth microdilution method. Format: functional.
Test [5] concerns Mycobacterium tuberculosis. Put plainly: Antimycobacterial activity against Mycobacterium tuberculosis H37Rv assessed as growth inhibition at 0.1 uM after 6 days by MTT colorimetric microassay. Format: functional, organism-based.
Test [6] deals with Staphylococcus aureus. Put plainly: Antimicrobial activity against methicillin-resistant Staphylococcus aureus ATCC 33592 after 18 to 24 hrs by broth microdilution method. Format: functional.

In brackets after ≈: the same amount, converted by molar mass. Activity calls are given as the source filed them.

What is called MBC is the smallest concentration meeting the test's criterion for killing. Broadly, the MIC is the lowest concentration found to suppress growth. Higher therefore signals a need for much substance. Take `O=C(CCCCCCCCCCCCCC(=O)OCN1CCN(c2cc3c(cc2F)c(=O)c(C(=O)O)cn3C2CC2)CC1)OCN1CCN(c2cc3c(cc2F)c(=O)c(C(=O)O)cn3C2CC2)CC1`: the minimum bactericidal concentration (MBC) against Staphylococcus aureus [1] is 500 µM (≈ 480 µg/mL); in the test on Staphylococcus aureus [2], at most 0.48 µM; against Staphylococcus aureus [3] it was 62.5 µM (≈ 59.9 µg/mL); against Escherichia coli, 62.5 µM (≈ 59.9 µg/mL); in the test with Staphylococcus aureus [4], 1.9 µM (≈ 1.82 µg/mL); in the test with Enterococcus hirae it was 15.6 µM (≈ 15 µg/mL). For the same compound, the minimum bactericidal concentration (MBC) amounted to 250 µM (≈ 240 µg/mL) against Pseudomonas aeruginosa and 0.97 µM (≈ 0.93 µg/mL) with Staphylococcus aureus [6]. The minimal inhibitory concentration (MIC) against Staphylococcus aureus [1] was 62.5 µM (≈ 59.9 µg/mL); against Staphylococcus aureus [2] it was at most 0.12 µM; against Staphylococcus aureus [3], 31.2 µM (≈ 29.9 µg/mL); with Escherichia coli it was 31.2 µM (≈ 29.9 µg/mL); in the test on Staphylococcus aureus [4], 0.48 µM (≈ 0.46 µg/mL); against Enterococcus hirae, 7.8 µM (≈ 7.48 µg/mL). Further, the MIC in the test with Pseudomonas aeruginosa was 62.5 µM (≈ 59.9 µg/mL); in the test on Staphylococcus aureus [6], 0.12 µM (≈ 0.115 µg/mL). The “growth inhibition (GI)” value in test [5] is “inactive”.

On to `CC(=O)OCC(=O)N1CCN(c2cc3c(cc2F)c(=O)c(C(=O)O)cn3C2CC2)CC1`, for which the MBC against Staphylococcus aureus [1] is 500 µM (≈ 216 µg/mL); with Staphylococcus aureus [2], at most 0.97 µM; with Staphylococcus aureus [3] it was 125 µM (≈ 53.9 µg/mL); with Escherichia coli it was 15.6 µM (≈ 6.73 µg/mL); in the test with Staphylococcus aureus [4], 3.9 µM (≈ 1.68 µg/mL); in the test with Enterococcus hirae, 15.6 µM (≈ 6.73 µg/mL). Besides, the MBC against Pseudomonas aeruginosa amounted to 250 µM (≈ 108 µg/mL); with Staphylococcus aureus [6] it was 1.9 µM (≈ 0.82 µg/mL). The minimal inhibitory concentration (MIC) with Staphylococcus aureus [1] was 125 µM (≈ 53.9 µg/mL); against Staphylococcus aureus [2], at most 0.97 µM; with Staphylococcus aureus [3] it was 125 µM (≈ 53.9 µg/mL); in the test on Escherichia coli, 7.8 µM (≈ 3.37 µg/mL); against Staphylococcus aureus [4], 3.9 µM (≈ 1.68 µg/mL); against Enterococcus hirae it was 15.6 µM (≈ 6.73 µg/mL). The minimal inhibitory concentration (MIC) against Pseudomonas aeruginosa is 62.5 µM (≈ 27 µg/mL); with Staphylococcus aureus [6] it was 0.97 µM (≈ 0.418 µg/mL). Moreover, the “growth inhibition (GI)” value in [5] was “inactive”.

For the compound `CCC(=O)N1CCN(c2cc3c(cc2F)c(=O)c(C(=O)O)cn3C2CC2)CC1`, the minimal bactericidal concentration (MBC) with Staphylococcus aureus [1] is 500 µM (≈ 194 µg/mL); in the test on Staphylococcus aureus [2], at most 0.97 µM; against Staphylococcus aureus [3], 31.2 µM (≈ 12.1 µg/mL); in the test on Escherichia coli it was 500 µM (≈ 194 µg/mL); in the test on Staphylococcus aureus [4], 0.97 µM (≈ 0.376 µg/mL); against Enterococcus hirae, 3.9 µM (≈ 1.51 µg/mL). Besides, the MBC with Pseudomonas aeruginosa was 250 µM (≈ 96.9 µg/mL); with Staphylococcus aureus [6] it was 0.48 µM (≈ 0.186 µg/mL). Moreover, the MIC with Staphylococcus aureus [1] was 62.5 µM (≈ 24.2 µg/mL); with Staphylococcus aureus [2] it was at most 0.48 µM; with Staphylococcus aureus [3] it was 31.2 µM (≈ 12.1 µg/mL); against Escherichia coli it was 3.9 µM (≈ 1.51 µg/mL); in the test on Staphylococcus aureus [4], 0.48 µM (≈ 0.186 µg/mL); in the test on Enterococcus hirae it was 3.9 µM (≈ 1.51 µg/mL). Moreover, the MIC stood at 31.2 µM (≈ 12.1 µg/mL) in the test with Pseudomonas aeruginosa and 0.24 µM (≈ 0.093 µg/mL) against Staphylococcus aureus [6]. Besides, the “growth inhibition (GI)” value in [5] was “inactive”.

`CC(=O)N1CCN(c2cc3c(cc2F)c(=O)c(C(=O)O)cn3C2CC2)CC1`: the MBC against Staphylococcus aureus [1] was 500 µM (≈ 187 µg/mL); with Staphylococcus aureus [2], 1.9 µM (≈ 0.709 µg/mL); in the test with Staphylococcus aureus [3], 62.5 µM (≈ 23.3 µg/mL); against Escherichia coli it was 1.9 µM (≈ 0.709 µg/mL); with Staphylococcus aureus [4], 0.97 µM (≈ 0.362 µg/mL); in the test on Enterococcus hirae it was 7.8 µM (≈ 2.91 µg/mL). Moreover, the MBC against Pseudomonas aeruginosa amounted to 31.2 µM (≈ 11.6 µg/mL); in the test with Staphylococcus aureus [6], 0.97 µM (≈ 0.362 µg/mL). Further, the MIC was 62.5 µM (≈ 23.3 µg/mL) against Staphylococcus aureus [1]; at most 0.48 µM in the test on Staphylococcus aureus [2]; 31.2 µM (≈ 11.6 µg/mL) against Staphylococcus aureus [3]; 1.9 µM (≈ 0.709 µg/mL) against Escherichia coli; 0.97 µM (≈ 0.362 µg/mL) in the test on Staphylococcus aureus [4]; 7.8 µM (≈ 2.91 µg/mL) against Enterococcus hirae. Besides, the results for the minimal inhibitory concentration (MIC) in the test with Pseudomonas aeruginosa and against Staphylococcus aureus [6] were 31.2 µM (≈ 11.6 µg/mL) and 0.48 µM (≈ 0.179 µg/mL), respectively. For the same compound, in test [5], the “growth inhibition (GI)” value is “inactive”.

Turning to `CCOC(=O)N1CCN(c2cc3c(cc2F)c(=O)c(C(=O)O)cn3C2CC2)CC1`, the minimal bactericidal concentration (MBC) against Staphylococcus aureus [1] was 500 µM (≈ 202 µg/mL); in the test with Staphylococcus aureus [2], at most 0.97 µM; against Staphylococcus aureus [3] it was 125 µM (≈ 50.4 µg/mL); in the test on Escherichia coli it was 31.2 µM (≈ 12.6 µg/mL); with Staphylococcus aureus [4], 1.9 µM (≈ 0.766 µg/mL); against Enterococcus hirae, 3.9 µM (≈ 1.57 µg/mL). Also, the MBC came to 250 µM (≈ 101 µg/mL) in the test with Pseudomonas aeruginosa and 1.9 µM (≈ 0.766 µg/mL) in the test with Staphylococcus aureus [6]. For the same compound, the MIC with Staphylococcus aureus [1] was 125 µM (≈ 50.4 µg/mL); against Staphylococcus aureus [2], at most 0.97 µM; against Staphylococcus aureus [3] it was 62.5 µM (≈ 25.2 µg/mL); against Escherichia coli it was 7.8 µM (≈ 3.15 µg/mL); against Staphylococcus aureus [4], 0.97 µM (≈ 0.391 µg/mL); against Enterococcus hirae it was 3.9 µM (≈ 1.57 µg/mL). Further, the results for the minimum inhibitory concentration (MIC) in the test on Pseudomonas aeruginosa and against Staphylococcus aureus [6] were 62.5 µM (≈ 25.2 µg/mL) and 0.48 µM (≈ 0.194 µg/mL), respectively. In addition, the “growth inhibition (GI)” value in [5] was “inactive”.
